Laboratory results: US9132126B2, “Phenyl-isoxazole derivatives and preparation process thereof” (priority 2011, dated 2015)
≈ marks a conversion by molar mass, not a printed value.

Columns and labels:
[1] = system: influenza virus (K09) expressing GFP; type: cell-based; set-up: key: ◯ = effective; X = ineffective
[2] = system: novel influenza virus (K09); assay: microbe, parasite or virus in culture; type: cell-based; details: for SI value K09: CC50/EC50; for EC50: MDCK, 72 h, read-out: Plaque reduction (Experimental Example 2) EC50
[3] = Cytotoxicity assay using MTT; type: cell-based; details: dog, MDCK cells infected with influenza virus (K09), MDCK cell infected with K09; compound 24 hours; read-out: MTT assay (Experimental Example 3) CC50
Protocol: In this experiment, a cell was infected with a virus, and then the virus was directly treated with a compound so as to determine if the virus-infected cell has toxicity. For this, a cell (MDCK) was infected with an influenza virus (K09) for 1 hour, and treated with the compound with different concentrations for 24 hours. Then, the cell was treated with a MTT reagent for 1 hour. After 1 hour, a formazan crystal produced by the MTT reagent was dissolved in DMSO, and the absorbance was measured by an ELISA reader so as to determine CC50.
measured by MTT assay. A maximum concentration of the compound, at which the number of cells is reduced to half or more compared to that of a control group

[4] = system: novel influenza virus (B/Field); assay: microbe, parasite or virus in culture; type: cell-based; details: unidentified influenza virus
[5] = system: H1N1 influenza virus (solomon); assay: microbe, parasite or virus in culture; type: cell-based; details: Solomon (H1N1); for EC50: Influenza A virus, read-out: EC50; for SI value: CC50/EC50
[6] = Acute toxicity test through oral administration in a rat; type: in vivo; details: Sprague-Dawley (SD), in vivo; male SD-Rat, single oral administration, 14 days observation
Protocol: The acute toxicity of the inventive compound was determined through oral administration in a rat. Since the compound is expected to be orally administered in a clinical situation, an oral administration route was selected. A male rat aged 6 weeks (SD-Rat, 220±30 g) was subjected to quarantine, and acclimated for 1 week under a condition of lighting of 12 hours (08:00˜20:00), and luminance of 150-300 Lux at 22±3° C. at a relative humidity of 50±20%, while being freely fed with feed and water. Each of a control group and an experimental group include 8 rats. The control group was orally administered with 0.5% HPMC, and the experimental group was orally administered with a material (different concentrations) suspended in 0.5% HPMC, by using a sonde in an amount in proportion to the measured weight of each individual.
The concentration of the drug administered to the experimental group was set as 2000 mg/kg (the highest concentration for a single dose administration in a non-clinical test), and 1000 mg/kg, and 500 mg/kg (with a common ratio). For 14 days from drug administration, clinical symptoms were observed while the weight change was measured. Test animals that died during the test were subjected to autopsy, and abnormalities of main organs (heart, liver, lung, spleen, kidney, and large intestine) were observed and recorded. On the last day of the test (on the 14th day from the administration), all individuals were subjected to autopsy, and the changes of the organs caused by a test material were observed and compared to those in the control group. In the control group, no rats had died, and abnormalities were not observed through autopsy.
Each group was orally administered in a concentration of 500 mg/kg, 1000 mg/kg, and 2000 mg/kg. For 14 days from the administration, according to the test method, clinical symptoms were observed. […] Also, in the groups administered in various amounts, no individuals died. […] Further, no abnormal responses were observed, and from the autopsy results, no peculiarities were observed.

Compound: COc1cccc(N2CCN(C(=O)c3c(-c4ccccc4C(F)(F)F)noc3C)CC2)c1 [Example 3, (4-(3-methoxyphenyl)piperazine-1-yl)(5-methyl-3-(2-(trifluoromethyl)phenyl)isoxazol-4-yl)methanone]
- GFP reduction (Experimental Example 1) effect [1]: ◯
- SI value K09 [2]: 473.84 to 1903.03
- EC50 [2]: 0.33 to 0.65 µg/mL (≈ 0.741 to 1.46 µM)
- CC50 at 24 h [3]: 308 to 628 µg/mL (≈ 691 to 1410 µM)
- EC50 [4]: > 50 µg/mL
- EC50 [5]: 0.064 to 0.094 µg/mL (≈ 0.144 to 0.211 µM)
- SI value [5]: 3276.59 to 9812.50
- LD50 at 14 days [6]: > 2000 mg/kg

Compound: COc1cccc(N2CCN(C(=O)c3c(-c4ccccc4Cl)noc3C)CC2)c1 [Example 9, (3-(2-chlorophenyl)-5-methylisoxazol-4-yl)(4-(3-methoxyphenyl)piperazine-1-yl)methanone]
- GFP reduction (Experimental Example 1) effect [1]: ◯
- SI value K09 [2]: 801.282 to 3205.128
- EC50 [2]: 0.195 to 0.39 µg/mL (≈ 0.473 to 0.947 µM)
- CC50 at 24 h [3]: 312 to 625 µg/mL (≈ 759 to 1520 µM)
- EC50 [4]: > 50 µg/mL
- EC50 [5]: 0.048 to 0.097 µg/mL (≈ 0.117 to 0.236 µM)
- SI value [5]: 3221.649 to 13020.833
- LD50 at 14 days [6]: > 2000 mg/kg

Compound: Cc1onc(-c2ccc(OC(F)(F)F)cc2)c1C(=O)N1CCN(c2ccc(Cl)c(Cl)c2)CC1 [Example 27, (4-(3,4-dichlorophenyl)piperazine-1-yl)(5-methyl-3-(4-(trifluoromethoxy)phenyl)isoxazol-4-yl)methanone]
- GFP reduction (Experimental Example 1) effect [1]: ◯
- SI value K09 [2]: 2.5 to 8.13
- EC50 [2]: 2.4 to 3.9 µg/mL (≈ 4.8 to 7.8 µM)
- CC50 at 24 h [3]: 9.77 to 19.5 µg/mL (≈ 19.5 to 39 µM)
- LD50 at 14 days [6]: > 2000 mg/kg

Compound: Cc1onc(-c2cccc(C(F)(F)F)c2)c1C(=O)N1CCN(c2ccc(Cl)c(Cl)c2)CC1 [Example 43, (4-(3,4-dichlorophenyl)piperazine-1-yl)(5-methyl-3-(3-(trifluoromethyl)phenyl)isoxazol-4-yl)methanone]
- GFP reduction (Experimental Example 1) effect [1]: X
- EC50 [2]: > 50 µg/mL
- CC50 at 24 h [3]: 2500 µg/mL (≈ 5160 µM)

Compound: Cc1onc(-c2cccc(OC(F)(F)F)c2)c1C(=O)N1CCN(c2ccc(Cl)c(Cl)c2)CC1 [Example 51, (4-(3,4-dichlorophenyl)piperazine-1-yl)(5-methyl-3-(3-(trifluoromethoxy)phenyl)isoxazol-4-yl)methanone]
- GFP reduction (Experimental Example 1) effect [1]: ◯
- SI value K09 [2]: 3.91 to 10.80
- EC50 [2]: 2.4 to 3.9 µg/mL (≈ 4.8 to 7.8 µM)
- CC50 at 24 h [3]: 15.2 to 25.9 µg/mL (≈ 30.5 to 51.8 µM)

Compound: COc1ccccc1N1CCN(C(=O)c2c(-c3cccc(OC(F)(F)F)c3)noc2C)CC1 [Example 53, (4-(2-methoxyphenyl)piperazine-1-yl)(5-methyl-3-(3-(trifluoromethoxy)phenyl)isoxazol-4-yl)methanone]
- GFP reduction (Experimental Example 1) effect [1]: ◯
- SI value K09 [2]: 160<
- EC50 [2]: 3.12 µg/mL (≈ 6.76 µM)
- CC50 at 24 h [3]: > 500 µg/mL

Compound: COc1ccccc1N1CCN(C(=O)c2c(-c3ccccc3Cl)noc2N)CC1 [Example 61, (5-amino-3-(2-chlorophenyl)isoxazol-4-yl)(4-(2-methoxyphenyl)piperazine-1-yl)methanone]
- GFP reduction (Experimental Example 1) effect [1]: ◯
- SI value K09 [2]: 159.94 to 319.89
- EC50 [2]: 0.39 µg/mL (≈ 0.945 µM)
- CC50 at 24 h [3]: 62.5 to 125 µg/mL (≈ 151 to 303 µM)
- LD50 at 14 days [6]: > 2000 mg/kg

Compound: Nc1onc(-c2cccc(F)c2)c1C(=O)N1CCN(c2ccc(Cl)c(Cl)c2)CC1 [Example 67, (5-amino-3-(3-fluorophenyl)isoxazol-4-yl)(4-(3,4-dichlorophenyl)piperazine-1-yl)methanone]
- GFP reduction (Experimental Example 1) effect [1]: ◯
- SI value K09 [2]: 2.59 to 8.85
- EC50 [2]: 2.4 to 3.9 µg/mL (≈ 5.51 to 8.96 µM)
- CC50 at 24 h [3]: 10.1 to 21.2 µg/mL (≈ 23.2 to 48.8 µM)

Compound: COc1cccc(N2CCN(C(=O)c3c(-c4cccc(F)c4)noc3N)CC2)c1 [Example 68, (5-amino-3-(3-fluorophenyl)isoxazol-4-yl)(4-(3-methoxyphenyl)piperazine-1-yl)methanone]
- GFP reduction (Experimental Example 1) effect [1]: ◯
- SI value K09 [2]: 3.03 to 7.81
- EC50 [2]: 17.5 to 29 µg/mL (≈ 44.1 to 73.2 µM)
- CC50 at 24 h [3]: 88.1 to 137 µg/mL (≈ 222 to 345 µM)

Compound: Nc1onc(-c2cccc(F)c2)c1C(=O)N1CCN(c2ccccc2O)CC1 [Example 72, (5-amino-3-(3-fluorophenyl)isoxazol-4-yl)(4-(2-hydroxyphenyl)piperazine-1-yl)methanone]
- GFP reduction (Experimental Example 1) effect [1]: ◯
- SI value K09 [2]: 0.31 to 1.25
- EC50 [2]: 25 to 50 µg/mL (≈ 65.4 to 131 µM)
- CC50 at 24 h [3]: 15.6 to 31.2 µg/mL (≈ 40.8 to 81.7 µM)

Compound: Nc1onc(-c2ccccc2F)c1C(=O)N1CCN(c2ccc(Cl)c(Cl)c2)CC1 [Example 75, (5-amino-3-(2-fluorophenyl)isoxazol-4-yl)(4-(3,4-dichlorophenyl)piperazine-1-yl)methanone]
- GFP reduction (Experimental Example 1) effect [1]: ◯
- SI value K09 [2]: 12.5 to 25.0
- EC50 [2]: > 50 µg/mL
- CC50 at 24 h [3]: 625 to 1250 µg/mL (≈ 1440 to 2870 µM)

Compound: Nc1onc(-c2ccccc2C(F)(F)F)c1C(=O)N1CCN(c2ccc(Cl)c(Cl)c2)CC1 [Example 91, (5-amino-3-(2-(trifluoromethyl)phenyl)isoxazol-4-yl)(4-(3,4-dichlorophenyl)piperazine-1-yl)methanone]
- GFP reduction (Experimental Example 1) effect [1]: ◯
- SI value K09 [2]: 0.71 to 2.39
- EC50 [2]: 12.4 to 25.8 µg/mL (≈ 25.7 to 53.2 µM)
- CC50 at 24 h [3]: 18.4 to 29.9 µg/mL (≈ 37.8 to 61.6 µM)

Compound: COc1cccc(N2CCN(C(=O)c3c(-c4ccc(OC(F)(F)F)cc4)noc3N)CC2)c1 [Example 100, (5-amino-3-(4-(trifluoromethoxy)phenyl)isoxazol-4-yl)(4-(3-methoxyphenyl)piperazine-1-yl)methanone]
- GFP reduction (Experimental Example 1) effect [1]: ◯
- SI value K09 [2]: 0.49 to 12.57
- EC50 [2]: 29 to 37 µg/mL (≈ 62.7 to 80 µM)
- CC50 at 24 h [3]: 18.4 to 46.5 µg/mL (≈ 39.9 to 101 µM)

Compound: Nc1onc(-c2cccc(C(F)(F)F)c2)c1C(=O)N1CCN(c2ccc(Cl)c(Cl)c2)CC1 [Example 107, (5-amino-3-(3-(trifluoromethyl)phenyl)isoxazol-4-yl)(4-(3,4-dichlorophenyl)piperazine-1-yl)methanone]
- GFP reduction (Experimental Example 1) effect [1]: ◯
- SI value K09 [2]: 31.34 to 62.68
- EC50 [2]: 2.72 to 3.9 µg/mL (≈ 5.6 to 8.04 µM)
- CC50 at 24 h [3]: 122 to 170 µg/mL (≈ 252 to 351 µM)
- LD50 at 14 days [6]: > 2000 mg/kg

Compound: COc1ccccc1N1CCN(C(=O)c2c(-c3cccc(C(F)(F)F)c3)noc2N)CC1 [Example 109, (5-amino-3-(3-(trifluoromethyl)phenyl)isoxazol-4-yl)(4-(2-methoxyphenyl)piperazine-1-yl)methanone]
- GFP reduction (Experimental Example 1) effect [1]: ◯
- SI value K09 [2]: 42.07 to 125.4
- EC50 [2]: 1.52 to 3.5 µg/mL (≈ 3.4 to 7.84 µM)
- CC50 at 24 h [3]: 147 to 191 µg/mL (≈ 330 to 427 µM)
- LD50 at 14 days [6]: > 2000 mg/kg

Compound: Nc1onc(-c2cccc(C(F)(F)F)c2)c1C(=O)N1CCN(c2ccccc2O)CC1 [Example 112, (5-amino-3-(3-(trifluoromethyl)phenyl)isoxazol-4-yl)(4-(2-hydroxyphenyl)piperazine-1-yl)methanone]
- GFP reduction (Experimental Example 1) effect [1]: ◯
- SI value K09 [2]: 0.33 to 1.37
- EC50 [2]: 25 to 50 µg/mL (≈ 57.8 to 116 µM)
- CC50 at 24 h [3]: 16.5 to 34.3 µg/mL (≈ 38.2 to 79.3 µM)

Compound: Nc1onc(-c2cccc(OC(F)(F)F)c2)c1C(=O)N1CCN(c2ccc(Cl)c(Cl)c2)CC1 [Example 115, (5-amino-3-(3-(trifluoromethoxy)phenyl)isoxazol-4-yl)(4-(3,4-dichlorophenyl)piperazine-1-yl)methanone]
- GFP reduction (Experimental Example 1) effect [1]: ◯
- SI value K09 [2]: 0.34 to 1.70
- EC50 [2]: 21 to 45 µg/mL (≈ 41.9 to 89.8 µM)
- CC50 at 24 h [3]: 15.5 to 35.8 µg/mL (≈ 30.9 to 71.3 µM)

Compound: COc1cccc(N2CCN(C(=O)c3c(-c4cccc(OC(F)(F)F)c4)noc3N)CC2)c1 [Example 116, (5-amino-3-(3-(trifluoromethoxy)phenyl)isoxazol-4-yl)(4-(3-methoxyphenyl)piperazine-1-yl)methanone]
- GFP reduction (Experimental Example 1) effect [1]: ◯
- SI value K09 [2]: 0.42 to 1.70
- EC50 [2]: 15 to 32 µg/mL (≈ 32.4 to 69.2 µM)
- CC50 at 24 h [3]: 13.7 to 25.6 µg/mL (≈ 29.5 to 55.4 µM)

Compound: CCOC(=O)C1CCN(C(=O)c2c(-c3ccccc3Cl)noc2N)CC1 [Example 122, ethyl-1-(5-amino-3-(2-chlorophenyl)isoxazol-4-carbonyl)piperidine-4-carboxylate]
- GFP reduction (Experimental Example 1) effect [1]: ◯
- SI value K09 [2]: 18.89 to 71.27
- EC50 [2]: 4.5 to 8.5 µg/mL (≈ 11.9 to 22.5 µM)
- CC50 at 24 h [3]: 161 to 321 µg/mL (≈ 425 to 849 µM)
- LD50 at 14 days [6]: > 2000 mg/kg
